# Measurements taken from ChEMBL document CHEMBL6096628, “Discovery of a Highly Potent and Selective BRD9 PROTAC Degrader Based on E3 Binder Investigation for the Treatment of Hematological Tumors” (J Med Chem, 2024).
# Activity calls are given as the source filed them. The rule behind the calls is not given here.
# Tests used:
# [1] = biological target: T1, Protein cereblon/Bromodomain-containing protein 9 (Homo sapiens, UniProt Q9H8M2+Q96SW2); experiment: PROTAC activity at CRBN/BRD9 in human MV4-11 cells assessed as induction of BRD9 degradation at 100 nM by Western blot analysis relative to control; format: cell-based
# Target sequence in this assay (Q96SW2 whole entry, looked up): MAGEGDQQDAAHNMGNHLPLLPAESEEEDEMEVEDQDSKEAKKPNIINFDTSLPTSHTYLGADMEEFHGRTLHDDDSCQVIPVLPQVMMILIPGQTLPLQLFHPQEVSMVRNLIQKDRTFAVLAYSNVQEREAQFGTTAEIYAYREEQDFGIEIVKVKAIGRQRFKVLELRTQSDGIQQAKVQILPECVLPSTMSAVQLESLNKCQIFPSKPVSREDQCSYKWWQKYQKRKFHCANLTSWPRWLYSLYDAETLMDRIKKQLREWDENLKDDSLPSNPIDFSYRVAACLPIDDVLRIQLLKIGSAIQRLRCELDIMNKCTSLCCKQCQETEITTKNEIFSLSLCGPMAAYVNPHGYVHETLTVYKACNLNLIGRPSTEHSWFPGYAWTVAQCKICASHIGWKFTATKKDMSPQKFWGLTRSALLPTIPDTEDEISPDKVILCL
# Target sequence in this assay (Q9H8M2 whole entry, looked up): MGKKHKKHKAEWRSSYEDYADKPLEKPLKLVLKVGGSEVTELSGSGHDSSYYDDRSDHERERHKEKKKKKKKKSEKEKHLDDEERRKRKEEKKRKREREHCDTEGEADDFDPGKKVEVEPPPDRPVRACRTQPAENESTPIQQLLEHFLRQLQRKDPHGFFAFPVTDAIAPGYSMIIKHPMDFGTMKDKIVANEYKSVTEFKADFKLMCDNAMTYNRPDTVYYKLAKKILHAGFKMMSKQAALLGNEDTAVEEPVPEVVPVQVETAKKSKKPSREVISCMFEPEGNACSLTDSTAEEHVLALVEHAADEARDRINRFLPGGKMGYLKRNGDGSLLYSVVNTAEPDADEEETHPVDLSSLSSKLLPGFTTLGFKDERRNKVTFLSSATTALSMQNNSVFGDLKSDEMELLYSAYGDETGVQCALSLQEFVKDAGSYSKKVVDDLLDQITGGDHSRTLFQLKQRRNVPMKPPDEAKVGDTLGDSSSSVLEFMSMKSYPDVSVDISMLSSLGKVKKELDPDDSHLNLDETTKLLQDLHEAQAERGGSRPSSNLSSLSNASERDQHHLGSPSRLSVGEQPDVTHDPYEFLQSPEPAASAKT
# MV4-11 [2] = experiment: Antiproliferative activity against CRBN knockout human MV4-11 cells assessed as inhibition of cell growth incubated for 7 days by MTS reagent based assay; format: functional; conditions: MV4-11, 168 h
# MV4-11 [3] = experiment: Antiproliferative activity against human MV4-11 cells assessed as inhibition of cell growth incubated for 7 days by MTS reagent based assay; format: functional; conditions: MV4-11, 168 h
# [4] = biological target: T1, Protein cereblon/Bromodomain-containing protein 9; experiment: PROTAC activity at CRBN/BRD9 in human MV4-11 cells assessed as induction of BRD9 degradation at 10 nM by Western blot analysis relative to control; format: cell-based
# Target sequence in this assay (Q96SW2 whole entry, looked up): as the sequence (Q96SW2 whole entry, looked up) above
# Target sequence in this assay (Q9H8M2 whole entry, looked up): as the sequence (Q9H8M2 whole entry, looked up) above
# [5] = biological target: T1, Protein cereblon/Bromodomain-containing protein 9; experiment: PROTAC activity at CRBN/BRD9 in human MV4-11 cells assessed as induction of BRD9 degradation at 1 nM by Western blot analysis relative to control; format: cell-based
# Target sequence in this assay (Q96SW2 whole entry, looked up): as the sequence (Q96SW2 whole entry, looked up) above
# Target sequence in this assay (Q9H8M2 whole entry, looked up): as the sequence (Q9H8M2 whole entry, looked up) above
# OCI-Ly10 = experiment: Antiproliferative activity against human OCI-Ly10 cells assessed as inhibition of cell growth incubated for 7 days by MTS reagent based assay; format: functional; conditions: OCI-Ly10, 168 h
# U-937 = experiment: Antiproliferative activity against human U-937 cells assessed as inhibition of cell growth incubated for 7 days by MTS reagent based assay; format: functional; conditions: time 7.0 day
# SU-DHL-2 = experiment: Antiproliferative activity against human SU-DHL-2 cells assessed as inhibition of cell growth incubated for 7 days by MTS reagent based assay; format: functional; conditions: SU-DHL-2, 168 h
# SU-DHL-6 = experiment: Antiproliferative activity against human SU-DHL-6 cells assessed as inhibition of cell growth incubated for 7 days by MTS reagent based assay; format: functional; conditions: SU-DHL-6, 168 h
# Kasumi 1 = experiment: Antiproliferative activity against human Kasumi 1 cells assessed as inhibition of cell growth incubated for 7 days by MTS reagent based assay; format: functional; conditions: Kasumi 1, 168 h
# MOLM-13 = experiment: Antiproliferative activity against human MOLM-13 cells assessed as inhibition of cell growth incubated for 7 days by MTS reagent based assay; format: functional; conditions: MOLM-13, 168 h
# [6] = biological target: T1, Protein cereblon/Bromodomain-containing protein 9; experiment: PROTAC activity at CRBN/BRD9 (unknown origin); format: protein assay
# Target sequence in this assay (Q9H8M2 whole entry): as the sequence (Q9H8M2 whole entry, looked up) above
# Target sequence in this assay (Q96SW2 whole entry): as the sequence (Q96SW2 whole entry, looked up) above
SMILES,Activity [1] [%],IC50 (MV4-11 [2]) [µM],IC50 (MV4-11 [3]) [nM],Activity [4] [%],Activity [5] [%],IC50 (OCI-Ly10) [nM],Activity (U-937),IC50 (SU-DHL-2) [nM],IC50 (SU-DHL-6) [nM],IC50 (Kasumi 1) [nM],IC50 (MOLM-13) [nM],DC50 [6] [nM]
COc1cc(-c2cn(C)c(=O)c3ccccc23)cc(OC)c1CN1CCC(c2ccc3c4c(cccc24)C(=O)N3C2CCC(=O)NC2=O)CC1 (centres undefined),50.5,> 5,2.44,80.5,79.5,,,,,,,
COc1cc(-c2cn(C)c(=O)c3ccccc23)cc(OC)c1CN1CCN(c2ccc(NC3CCC(=O)NC3=O)cc2F)CC1 (centres undefined),86,> 5,17.7,74.7,34,,,,,,,
COc1cc(-c2cn(C)c(=O)c3ccccc23)cc(OC)c1CN1CCC(CN2CCN(c3ccc(C(=O)NC4CCC(=O)NC4=O)nc3)CC2)CC1 (centres undefined),92,> 5,5.31,95.5,29.5,,,,,,,
COc1cc(-c2cn(C)c(=O)c3ccccc23)cc(OC)c1CN1CCC(CN2CCN(c3ccc(OC4CCC(=O)NC4=O)cc3)CC2)CC1 (centres undefined),98,> 5,46.9,89,13,,,,,,,
COc1cc(-c2cn(C)c(=O)c3ccccc23)cc(OC)c1CN1CCN(c2ccc(C(=O)NC3CCC(=O)NC3=O)cn2)CC1 (centres undefined),50,> 5,2490,39.3,33.3,,,,,,,
COc1cc(-c2cn(C)c(=O)c3ccccc23)cc(OC)c1CN1CCC(CN2CCN(c3ccc(NC4CCC(=O)NC4=O)cn3)CC2)CC1 (centres undefined),86.5,> 5,11.9,85.5,56,,,,,,,
COc1cc(-c2cn(C)c(=O)c3ccccc23)cc(OC)c1CN1CCN(c2ccc(C3CCC(=O)NC3=O)cc2)CC1 (centres undefined),83.7,> 5,128,87.3,65,,,,,,,
CCn1cc(-c2cccc(C(F)(F)F)c2)c2sc(C(=N)NC3CCS(=O)(=O)CC3)cc2c1=O,,,385,,,2710,Active; Weak Inhibitory Effect Observed,1590,1210,453,1220,
COc1cc(-c2cn(C)c(=O)c3ccccc23)cc(OC)c1CN1CCN(c2ccc(C(=O)NC3CCC(=O)NC3=O)nc2)CC1 (centres undefined),65,> 5,4510,21.3,18.3,,,,,,,
COc1cc(-c2cn(C)c(=O)c3ccccc23)cc(OC)c1CN1CCN(c2ccc(NC3CCC(=O)NC3=O)cn2)CC1 (centres undefined),59.3,> 5,1670,46.7,41.7,,,,,,,
COc1cc(-c2cn(C)c(=O)c3ccccc23)cc(OC)c1CN1CCN(c2ccc(N3CCC(=O)NC3=O)cc2)CC1,25,> 5,691,8,12,,,,,,,
COc1cc(-c2cn(C)c(=O)c3ccccc23)cc(OC)c1CN1CCN(c2ccc(OC3CCC(=O)NC3=O)cc2)CC1 (centres undefined),80.5,> 5,3610,60.5,32,,,,,,,
COc1cc(-c2cn(C)c(=O)c3ccccc23)cc(OC)c1CN1CCN(c2ccc(C(=O)NC3CCC(=O)NC3=O)cc2)CC1 (centres undefined),35.7,> 5,3150,32.3,26.7,,,,,,,
COc1cc(-c2cn(C)c(=O)c(C)c2C)cc(OC)c1CN1CC[C@H](N2CCN(c3ccc(N[C@H]4CCC(=O)NC4=O)cc3F)CC2)C(F)(F)C1 (racemic) [SENDEGOBRESIB],93.9,> 5,35.3,74.9,6.9,1240,Active; Weak Inhibitory Effect Observed,323,3250,14.6,59.9,3
COc1cc(-c2cn(C)c(=O)c3ccccc23)cc(OC)c1CN1CCC(CN2CCN(c3ccc(NC4CCC(=O)NC4=O)cc3)CC2)CC1 (centres undefined),97.5,> 5,5.61,96.5,69.5,,,,,,,
COc1cc(-c2cn(C)c(=O)c3ccccc23)cc(OC)c1CN1CCN(c2ccc(NC3CCC(=O)NC3=O)cc2)CC1 (centres undefined),80.5,> 5,424,66,45.5,,,,,,,
